Measurements as given in ChEMBL document CHEMBL1152811, “Docking model of drug binding to the human ether-à-go-go potassium channel guided by tandem dimer mutant patch-clamp data: a synergic approach” (J Med Chem, 2009).
pIC50: −log10 of the molar value. Activity calls are given as the source filed them. The rule behind the calls is not given here.

How the values were obtained:
Format in all cases: cell-based
[1] = Inhibition of human ERG td[wt:F656A] mutant expressed in HEK293 cells by whole cell patch clamp method
[2] = Inhibition of human ERG td[wt:Y652A] mutant expressed in HEK293 cells by whole cell patch clamp method
[3] = tested on: HEK293; test: Binding affinity to human ERG td[wt:Y652A] mutant expressed in HEK293 cells assessed as blockade of membrane current at 0.2 uM by whole cell patch clamp method
[4] = tested on: HEK293; test: Binding affinity to human ERG td[wt:F656A] mutant expressed in HEK293 cells assessed as blockade of membrane current at 0.05 uM by whole cell patch clamp method
[5] = target: Voltage-gated inwardly rectifying potassium channel KCNH2 (Homo sapiens, UniProt Q12809); test: Inhibition of human ERG expressed in HEK293 cells by whole cell patch clamp method
Sequence of Voltage-gated inwardly rectifying potassium channel KCNH2 (Q12809 whole entry): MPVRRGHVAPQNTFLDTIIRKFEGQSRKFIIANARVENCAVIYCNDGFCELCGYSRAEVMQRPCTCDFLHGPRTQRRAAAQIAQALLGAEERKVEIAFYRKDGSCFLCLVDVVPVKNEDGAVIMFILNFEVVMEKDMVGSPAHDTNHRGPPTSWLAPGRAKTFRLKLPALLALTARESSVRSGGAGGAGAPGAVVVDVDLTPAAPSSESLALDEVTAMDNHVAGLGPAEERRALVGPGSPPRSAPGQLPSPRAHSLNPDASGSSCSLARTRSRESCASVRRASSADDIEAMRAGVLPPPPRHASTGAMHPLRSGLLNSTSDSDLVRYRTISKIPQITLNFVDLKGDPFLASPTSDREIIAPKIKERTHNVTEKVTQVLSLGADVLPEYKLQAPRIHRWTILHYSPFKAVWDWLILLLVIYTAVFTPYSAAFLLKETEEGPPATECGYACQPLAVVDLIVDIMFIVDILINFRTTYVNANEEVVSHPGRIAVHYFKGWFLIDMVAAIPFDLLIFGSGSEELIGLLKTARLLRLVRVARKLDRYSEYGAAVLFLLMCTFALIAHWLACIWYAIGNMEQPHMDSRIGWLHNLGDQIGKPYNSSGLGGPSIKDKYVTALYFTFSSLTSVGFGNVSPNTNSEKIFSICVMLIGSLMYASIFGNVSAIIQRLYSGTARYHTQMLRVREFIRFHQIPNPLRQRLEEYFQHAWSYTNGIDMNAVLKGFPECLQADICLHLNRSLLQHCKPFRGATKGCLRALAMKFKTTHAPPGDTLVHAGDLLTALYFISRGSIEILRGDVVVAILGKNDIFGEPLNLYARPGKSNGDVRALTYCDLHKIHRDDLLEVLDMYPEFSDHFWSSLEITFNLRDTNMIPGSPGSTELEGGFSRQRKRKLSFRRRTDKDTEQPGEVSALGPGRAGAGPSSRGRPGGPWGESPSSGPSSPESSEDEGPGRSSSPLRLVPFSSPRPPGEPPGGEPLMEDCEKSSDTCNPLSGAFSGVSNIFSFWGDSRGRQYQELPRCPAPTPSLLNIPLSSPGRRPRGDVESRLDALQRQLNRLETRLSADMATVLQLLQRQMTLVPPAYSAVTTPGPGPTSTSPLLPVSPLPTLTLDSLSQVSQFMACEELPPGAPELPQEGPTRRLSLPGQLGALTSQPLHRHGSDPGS

| pIC50 [1] | pIC50 [2] | Structure (SMILES) | Activity [3] | Activity [4] | pIC50 [5] |
| --- | --- | --- | --- | --- | --- |
| 7.70 | 6.60 | Cc1cccc(CCN2CCC(C(=O)c3ccc(NS(C)(=O)=O)cc3)CC2)n1 |  |  |  |
| 8.00 | 6.74 | COc1cc(N)c(Cl)cc1C(=O)NC1CCN(CCCOc2ccc(F)cc2)CC1OC (centres undefined) [CISAPRIDE] | Active | Active |  |
|  |  | CCOc1cc(N)c(Cl)cc1C(=O)NCC1CN(Cc2ccc(F)cc2)CCO1 (centres undefined) [MOSAPRIDE] |  |  | 5.32 |
| 7.52 | 7.52 | CC(C)(C)c1ccc(C(O)CCCN2CCC(C(O)(c3ccccc3)c3ccccc3)CC2)cc1 (centres undefined) [TERFENADINE] |  |  |  |
